Consider 27 compounds from ChEMBL document CHEMBL1177858, “Cytotoxicity and topo I targeting activity of substituted 10--nitrogenous heterocyclic aromatic group derivatives of SN-38” (Eur J Med Chem, 2010).

Assay [1] relates to KB. Briefly: Cytotoxicity against human KB cells after 3 days by MTT assay. It counts as functional, cell-based. A general note: Tetrazolium assays rely on reduction of a dye to a coloured formazan, in cell work by metabolically active cells.
Assay [2] relates to MCF7. The experiment in a line: Cytotoxicity against human MCF7 cells after 3 days by MTT assay. It counts as functional, cell-based.
In assay [3] the test system is HCT-8. The experiment in a line: Cytotoxicity against human HCT8 cells after 3 days by MTT assay. It counts as functional, cell-based.
The target of assay [4] is T1, DNA topoisomerase 1 (Homo sapiens) (UniProt P11387).
T1 sequence (whole entry): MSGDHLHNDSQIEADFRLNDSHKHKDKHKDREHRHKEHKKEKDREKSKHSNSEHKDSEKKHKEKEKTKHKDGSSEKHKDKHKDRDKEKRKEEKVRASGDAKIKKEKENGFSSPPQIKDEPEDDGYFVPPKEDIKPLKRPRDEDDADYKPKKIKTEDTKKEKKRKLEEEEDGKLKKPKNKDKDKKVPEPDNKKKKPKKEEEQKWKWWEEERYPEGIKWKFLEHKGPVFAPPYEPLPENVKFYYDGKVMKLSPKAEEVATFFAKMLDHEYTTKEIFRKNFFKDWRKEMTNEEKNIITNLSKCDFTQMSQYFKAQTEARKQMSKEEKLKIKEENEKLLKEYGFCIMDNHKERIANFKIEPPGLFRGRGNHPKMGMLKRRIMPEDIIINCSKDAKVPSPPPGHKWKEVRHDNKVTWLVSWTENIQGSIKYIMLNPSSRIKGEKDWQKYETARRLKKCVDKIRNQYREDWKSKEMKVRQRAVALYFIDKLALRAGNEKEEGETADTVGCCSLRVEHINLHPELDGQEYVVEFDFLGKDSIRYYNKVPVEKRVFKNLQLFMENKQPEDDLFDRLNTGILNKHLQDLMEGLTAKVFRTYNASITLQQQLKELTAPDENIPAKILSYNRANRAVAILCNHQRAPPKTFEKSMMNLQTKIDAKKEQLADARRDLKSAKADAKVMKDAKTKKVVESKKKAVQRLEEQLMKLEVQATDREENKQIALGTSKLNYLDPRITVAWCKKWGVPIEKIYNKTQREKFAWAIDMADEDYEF
Briefly: Inhibition of topoisomerase 1-mediated supercoiled pBR322 relaxation assessed as change in band intensity by electrophoresis relative to camptothecin. Further: test concentration or dose not given here.

Consider `CCc1c2c(nc3ccc(OCC[n+]4ccccc4)cc13)-c1cc3c(c(=O)n1C2)COC(=O)[C@]3(O)CC.[Br-]`, for which the figures for the IC50 in assay [1], in assay [2] and in assay [3] were 0.08 nM/ml, 1.56 nM/ml and 0.52 nM/ml, respectively. Besides, the fold change (FC) in assay [4] amounted to 1.12.
Take `CCc1c2c(nc3ccc(OCCCOc4cc(C(F)(F)F)ncn4)cc13)-c1cc3c(c(=O)n1C2)COC(=O)[C@]3(O)CC`: the IC50 in assay [1] was found to be 0.02 nM/ml; in assay [2], 0.08 nM/ml; in assay [3], 0.07 nM/ml. For the same compound, the fold change (FC) in assay [4] was determined as 0.59.
Consider `CCc1c2c(nc3ccc(OCCCn4cncn4)cc13)-c1cc3c(c(=O)n1C2)COC(=O)[C@]3(O)CC`, for which the figures for the IC50 in assay [1], in assay [2] and in assay [3] were 0.04 nM/ml, 0.08 nM/ml and 0.04 nM/ml, respectively. For the same compound, the fold change (FC) in assay [4] came to 0.64.
For `CC[C@@]1(O)C(=O)OCc2c1cc1n(c2=O)Cc2cc3cc(OCC[n+]4cccc(CO)c4)ccc3nc2-1.[Br-]`, the IC50 in assay [1] is 6.57 nM/ml; in assay [3] it was 7.49 nM/ml. Moreover, the fold change (FC) in assay [4] was determined as 0.7.
With `CCc1c2c(nc3ccc(OCCCn4ccnc4)cc13)-c1cc3c(c(=O)n1C2)COC(=O)[C@]3(O)CC`, the IC50 in assay [1] was 0.32 nM/ml; in assay [2], 0.16 nM/ml; in assay [3], 0.06 nM/ml. For the same compound, the fold change (FC) in assay [4] is 1.01.
On to `CCc1c2c(nc3ccc(OCCC[n+]4cccc(C(C)=O)c4)cc13)-c1cc3c(c(=O)n1C2)COC(=O)[C@]3(O)CC.[Br-]`, for which the IC50 in assay [1] is 4.82 nM/ml; in assay [2], 2.81 nM/ml; in assay [3], 2.24 nM/ml. Further, the fold change (FC) in assay [4] is 0.86.
Consider `CC[C@@]1(O)C(=O)OCc2c1cc1n(c2=O)Cc2cc3cc(OCCC[n+]4cccc(C)c4)ccc3nc2-1.[Br-]`, for which the IC50 in assay [1] and in assay [3] was below 0.01 nM/ml throughout. For the same compound, the fold change (FC) in assay [4] came to 0.72.
For `CC[C@@]1(O)C(=O)OCc2c1cc1n(c2=O)Cc2cc3cc(OCCC[n+]4ccccc4)ccc3nc2-1.[Br-]`, the IC50 in assay [1] stood at 0.06 nM/ml; in assay [3] it was 0.07 nM/ml. In assay [4], the fold change (FC) stood at 0.7.
As for `CCc1c2c(nc3ccc(OCCC[n+]4cccc(CO)c4)cc13)-c1cc3c(c(=O)n1C2)COC(=O)[C@]3(O)CC.[Br-]`, the values for the IC50 in assay [1], in assay [2] and in assay [3] were 0.52 nM/ml, 1.38 nM/ml and 0.13 nM/ml, respectively. The fold change (FC) in assay [4] worked out at 0.95.
`CC[C@@]1(O)C(=O)OCc2c1cc1n(c2=O)Cc2cc3cc(OCC[n+]4cccc(C(C)=O)c4)ccc3nc2-1.[Br-]`: the IC50 in assay [1] amounted to 6.28 nM/ml; in assay [3] it was 5.88 nM/ml. The fold change (FC) in assay [4] was 1.04.
Take `CCc1c2c(nc3ccc(OCCCn4cnc5cncnc54)cc13)-c1cc3c(c(=O)n1C2)COC(=O)[C@]3(O)CC`: the figures for the IC50 in assay [1], in assay [2] and in assay [3] were 0.13 nM/ml, 1.23 nM/ml and 0.88 nM/ml, respectively. Also, the fold change (FC) in assay [4] was found to be 0.72.
On to `CC[C@@]1(O)C(=O)OCc2c1cc1n(c2=O)Cc2cc3cc(OCCCn4cncn4)ccc3nc2-1`, for which the IC50 in assay [2] amounted to 0.62 nM/ml; in assay [3], 0.9 nM/ml. In addition, the fold change (FC) in assay [4] amounted to 0.62.
Take `CCc1c2c(nc3ccc(OCCC[n+]4ccccc4)cc13)-c1cc3c(c(=O)n1C2)COC(=O)[C@]3(O)CC.[Br-]`: the IC50 is reported as 0.02 nM/ml in assay [1], 0.14 nM/ml in assay [2] and 0.04 nM/ml in assay [3]. Further, the fold change (FC) in assay [4] is 0.96.
As for `CC[C@@]1(O)C(=O)OCc2c1cc1n(c2=O)Cc2cc3ccccc3nc2-1` [CAMPTOTHECIN], the IC50 in assay [1] is below 0.013 nM/ml; in assay [2], 0.02 nM/ml; in assay [3] it was below 0.013 nM/ml. Also, the fold change (FC) in assay [4] was found to be 1.
On to `CC[C@@]1(O)C(=O)OCc2c1cc1n(c2=O)Cc2cc3cc(OCC[n+]4cccc(F)c4)ccc3nc2-1.[Br-]`, for which the IC50 in assay [1] is on record as 0.68 nM/ml; in assay [3] it was 0.73 nM/ml. Further, in assay [4], the fold change (FC) worked out at 0.85.
Take `CCc1c2c(nc3ccc(OCC[n+]4cccc(CO)c4)cc13)-c1cc3c(c(=O)n1C2)COC(=O)[C@]3(O)CC.[Br-]`: the IC50 was determined as 0.61 nM/ml in assay [1], 1.74 nM/ml in assay [2] and 0.85 nM/ml in assay [3]. The fold change (FC) in assay [4] stood at 1.02.
For the compound `CCc1c2c(nc3ccc(OCC[n+]4cccc(C)c4)cc13)-c1cc3c(c(=O)n1C2)COC(=O)[C@]3(O)CC.[Br-]`, the IC50 is recorded as 0.06 nM/ml in assay [1], 5.04 nM/ml in assay [2] and 0.27 nM/ml in assay [3]. Besides, the fold change (FC) in assay [4] is 1.07.
Turning to `CCc1c2c(nc3ccc(OCC[n+]4cccc(C(C)=O)c4)cc13)-c1cc3c(c(=O)n1C2)COC(=O)[C@]3(O)CC.[Br-]`, the IC50 was found to be 0.09 nM/ml in assay [1], 0.26 nM/ml in assay [2] and 0.09 nM/ml in assay [3]. The fold change (FC) in assay [4] stood at 0.97.
On to `CC[C@@]1(O)C(=O)OCc2c1cc1n(c2=O)Cc2cc3cc(OCC[n+]4ccccc4)ccc3nc2-1.[Br-]`, for which the IC50 in assay [1] worked out at 0.72 nM/ml; in assay [3], 0.97 nM/ml. In addition, the fold change (FC) in assay [4] was determined as 1.03.
Regarding `CC[C@@]1(O)C(=O)OCc2c1cc1n(c2=O)Cc2cc3c(CN(C)C)c(O)ccc3nc2-1` [TOPOTECAN], the values for the IC50 in assay [1], in assay [2] and in assay [3] were 0.07 nM/ml, 0.15 nM/ml and 0.07 nM/ml, respectively.
Turning to `CC[C@@]1(O)C(=O)OCc2c1cc1n(c2=O)Cc2cc3cc(OCCCOc4cc(C(F)(F)F)ncn4)ccc3nc2-1`, the IC50 in assay [2] and in assay [3] was 0.18 nM/ml each time. The fold change (FC) in assay [4] worked out at 0.67.
In the case of `CCc1c2c(nc3ccc(OCC[n+]4cccc(F)c4)cc13)-c1cc3c(c(=O)n1C2)COC(=O)[C@]3(O)CC.[Br-]`, the IC50 is reported as 0.19 nM/ml in assay [1], 0.25 nM/ml in assay [2] and 0.1 nM/ml in assay [3]. Moreover, the fold change (FC) in assay [4] came out at 1.07.
Take `CC[C@@]1(O)C(=O)OCc2c1cc1n(c2=O)Cc2cc3cc(OCC[n+]4cccc(C)c4)ccc3nc2-1.[Br-]`: the IC50 is given as 1.3 nM/ml in assay [1] and 2.95 nM/ml in assay [3]. Besides, in assay [4], the fold change (FC) was 1.02.
With `CCc1c2c(nc3ccc(OCCC[n+]4cccc(F)c4)cc13)-c1cc3c(c(=O)n1C2)COC(=O)[C@]3(O)CC.[Br-]`, the figures for the IC50 in assay [1], in assay [2] and in assay [3] were 1.9 nM/ml, 1.92 nM/ml and 0.43 nM/ml, respectively. Besides, in assay [4], the fold change (FC) was determined as 0.92.
As to `CC[C@@]1(O)C(=O)OCc2c1cc1n(c2=O)Cc2cc3cc(OCCCn4cnc5cncnc54)ccc3nc2-1`, the figures for the IC50 in assay [2] and in assay [3] were 2.09 nM/ml and 1.81 nM/ml, respectively. In addition, the fold change (FC) in assay [4] came out at 0.61.
With `CC[C@@]1(O)C(=O)OCc2c1cc1n(c2=O)Cc2cc3cc(OCCCn4ccnc4)ccc3nc2-1`, the IC50 in assay [2] is 0.38 nM/ml; in assay [3], 0.98 nM/ml. Besides, the fold change (FC) in assay [4] is 0.7.
With `CCc1c2c(nc3ccc(OCCC[n+]4cccc(C)c4)cc13)-c1cc3c(c(=O)n1C2)COC(=O)[C@]3(O)CC.[Br-]`, the IC50 in assay [1] is below 0.01 nM/ml; in assay [2], 0.11 nM/ml; in assay [3], below 0.01 nM/ml. In addition, in assay [4], the fold change (FC) was found to be 0.97.
